Source: patent EP3722296B1, “DIHYDRONAPHTHYRIDINES AND RELATED COMPOUNDS USEFUL AS KINASE INHIBITORS FOR THE TREATMENT OF PROLIFERATIVE DISEASES” (Deciphera Pharmaceuticals, LLC, priority 2012, dated 2013)

Columns and labels:
c-KIT V654A kinase = molecular target: T1, c-KIT V654A kinase (Homo sapiens, UniProt P10721, V654A); assay: c-KIT V654A Kinase Assay; assay type: biochemical; details: enzymatic assay, ATP 200 µM
T1 construct: residues T544-V976 with N-terminal GST fusion; purchased deCODE Biostructures
Experimental: (§1) In this assay, the oxidation of NADH (measured by decrease in absorbance at 340 nm) was continuously monitored spectrophotometrically. […] The inhibition reaction was started by mixing serial diluted test compound with the above reaction mixture. The absorption at 340 nm was monitored continuously for 6 hours at 30 °C on Synergy 2 plate reader (BioTech).
(§2) The protein construct was prepared by deCODE Biostructures using procedures known in the art. The construct contains residues T544-V976 of cKit, an N-terminal tag, a GST-fusion sequence and a TEV cleavage site. This construct is identical to Seq ID no.

c-KIT D816H kinase = molecular target: T2, c-KIT D816H kinase (Homo sapiens, UniProt P10721, D816H); assay: c-KIT D816H Kinase Assay; assay type: biochemical; details: enzymatic assay, ATP 200 µM
T2 construct: The construct contains residues T544-V976 of cKit; GST (N); TEV cleavage site (internal); purchased deCODE Biostructures
Experimental: as §1, with “(BioTech). […] The protein construct was prepared by deCODE Biostructures using procedures known in the art. The construct contains […] of cKit, an N-terminal tag, a GST-fusion sequence and a TEV cleavage site. This construct is identical to Seq ID no.” for “(BioTech).”

c-KIT D816V kinase = molecular target: T3, c-KIT D816V kinase (Homo sapiens, UniProt P10721, D816V); assay: c-KIT D816V kinase Assay; assay type: biochemical; details: enzymatic assay, ATP 200 uM
T3 construct: residues T544-V976 with N-terminal GST fusion; purchased deCODE Biostructures
Experimental: as §1, with “5” for “6”
as §2

c-KIT T670I kinase = molecular target: T4, c-KIT T670I kinase (Homo sapiens, UniProt P10721, T670I); assay: c-KIT T670I kinase assay; assay type: biochemical; details: enzymatic assay
T4 construct: The construct contains residues T544-V976 of cKit; GST (N); TEV cleavage site (internal); purchased deCODE Biostructures
Experimental: In this assay, the oxidation of NADH (measured by decrease in absorbance at 340 nm) was continuously monitored spectrophotometrically. […] The inhibition reaction was started by mixing serial diluted test compound with the above reaction mixture. The absorption at 340 nm was monitored continuously for 5 hours at 30 °C on Synergy 2 plate reader (BioTech). […] The protein construct was prepared by deCODE Biostructures using procedures known in the art. The construct contains […] of cKit, an N-terminal tag, a GST-fusion sequence and a TEV cleavage site. This construct is identical to Seq ID no. 1 except for the T670I mutation. [formula] [formula]

GIST T1 cells = assay: GIST T1 Cell Proliferation Assay; assay type: cell-based; details: Homo sapiens, GISTT1, 72 h, 68 hours + 4 hours resazurin
Experimental: GIST48, GIST430, and GIST882 cells were obtained from J. Fletcher (Brigham and Women's Hospital, Boston, MA). GIST T1 cells were obtained from B. Rubin (Cleveland Clinic, Cleveland, OH) and Professor Takahiro Taguchi (Kochi Medical School, Nankoku, Kochi, Japan). Briefly, GIST48 and GIST 882 cells were grown in RPMI 1640 medium supplemented with 15% characterized fetal bovine serum (Invitrogen, Carlsbad, CA), 1 unit/mL penicillin G, 1 µg/ml streptomycin, and 0.29 mg/mL L-glutamine at 37 °C, 5% CO2, and 95% humidity. GIST430 cells were grown in Ham's F10 medium supplemented with 15% characterized fetal bovine serum (Invitrogen, Carlsbad, CA), 30 mg/L bovine pituitary extract (BD Biosciences, San Jose, CA), 0.5% Mito+ serum extender (BD Biosciences, San Jose, CA), 1 unit/mL penicillin G, 1 µg/ml streptomycin, and 0.29 mg/mL L-glutamine at 37 °C, 5%CO2, 95% humidity. GIST T1 cells were grown in DMEM medium supplemented with 10% characterized fetal bovine serum (Invitrogen, Carlsbad, CA), 1 unit/mL penicillin G, 1 µg/ml streptomycin, and 0.29 mg/mL L-glutamine at 37 °C, 5% CO2, and 95% humidity.
A serial dilution of test compound was dispensed into a 384-well black clear bottom plate (Corning, Corning, NY). One thousand two-hundred fifty cells were added per well in 50 µL complete growth medium. Plates were incubated for 68 hours at 37 °C, 5% CO2, 95% humidity. At the end of the incubation period 10 µL of a 440 µM solution of resazurin (Sigma, St. Louis, MO) in PBS was added to each well and incubated for an additional 4 hours at 37 °C, 5% CO2, 95% humidity. Plates were read on a Synergy2 reader (Biotek, Winooski, VT) using an excitation of 540 nm and an emission of 600 nm.

c-KIT kinase = c-KIT kinase (Homo sapiens, UniProt P10721); assay: c-KIT kinase Assay; assay type: biochemical; parameters: cKIT residues T544-V976; GST (N); TEV cleavage site (internal); purchased deCODE Biostructures; details: enzymatic assay, ATP 200 µM; read-out: KIT (wt) IC50
Experimental: In this assay, the oxidation of NADH (measured by decrease in absorbance at 340 nm) was continuously monitored spectrophotometrically. […] The absorption at 340 nm was monitored continuously for 2 hours at 30 °C on Synergy 2 (BioTeK). The reaction rate was calculated using the 0 to 1 h time frame. Percent inhibition was obtained by comparison of reaction rate with that of a control (i.e. with no test compound). IC50 values were calculated from a series of percent inhibition values determined at a range of inhibitor concentrations using software routines as implemented in the GraphPad Prism software package. The protein construct was prepared by deCODE Biostructures using procedures known in the art. The construct contains […] of cKit, an N-terminal tag, a GST-fusion sequence and a TEV cleavage site. [formula]

T2 sequence (P10721 544-976 D816H): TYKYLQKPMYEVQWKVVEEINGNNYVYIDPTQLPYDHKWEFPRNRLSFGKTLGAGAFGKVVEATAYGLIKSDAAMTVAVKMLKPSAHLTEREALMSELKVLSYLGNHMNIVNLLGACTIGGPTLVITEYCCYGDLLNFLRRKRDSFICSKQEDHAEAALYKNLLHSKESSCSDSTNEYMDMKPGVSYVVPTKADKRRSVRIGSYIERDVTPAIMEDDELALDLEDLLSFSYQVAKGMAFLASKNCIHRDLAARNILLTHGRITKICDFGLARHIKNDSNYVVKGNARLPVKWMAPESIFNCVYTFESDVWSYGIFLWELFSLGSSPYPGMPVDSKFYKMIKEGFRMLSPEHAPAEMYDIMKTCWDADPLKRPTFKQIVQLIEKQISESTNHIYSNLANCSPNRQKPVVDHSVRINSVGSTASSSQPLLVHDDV
T3 sequence (P10721 544-976 D816V): as the sequence (P10721 544-976 D816H) above, with H273V counted along it
T4 sequence (P10721 544-976 T670I): as the sequence (P10721 544-976 D816H) above, with T127I, H273D counted along it
T1 sequence (P10721 544-976 V654A): as the sequence (P10721 544-976 D816H) above, with V111A, H273D counted along it
c-KIT kinase, sequence (P10721 544-976): as the sequence (P10721 544-976 D816H) above, with H273D counted along it

Row | Structure (SMILES) | IC50 (c-KIT V654A kinase) [nM] | IC50 (c-KIT D816H kinase) [nM] | IC50 (c-KIT D816V kinase) [nM] | IC50 (c-KIT T670I kinase) [nM] | IC50 (c-KIT kinase) [nM] | IC50 (GIST T1 cells) [nM]
1 | CCn1c(=O)c(-c2cc(NC(=O)Nc3ccc(F)c(CN4CCN(C)CC4)c3)c(F)cc2C)cc2cnc(N)cc21 [Example 93, 1-(5-(7-amino-1-ethyl-2-oxo-1,2-dihydro-1,6-naphthyridin-3-yl)-2-fluoro-4-methylphenyl)-3-(4-fluoro-3-((4-methylpiperazin-1-yl)methyl)phenyl)urea] | 100 to 1000 | 10 to 100 | 100 to 1000 | 10 to 100 | 10 to 100 | 10 to 100
2 | CCn1c(=O)c(-c2cc(NC(=O)Nc3ccccc3)c(F)cc2Cl)cc2cnc(NC(=O)N3CC[C@H](N(C)C)C3)cc21 [Example 96, (S)-N-(3-(2-chloro-4-fluoro-5-(3-phenylureido)phenyl)-1-ethyl-2-oxo-1,2-dihydro-1,6-naphthyridin-7-yl)-3-(dimethylamino)pyrrolidine-1-carboxamide] | 10 to 100 | 10 to 100 | 10 to 100 | 10 to 100 | < 10 | < 10
3 | CCn1c(=O)c(-c2cc(NC(=O)Nc3ccc(F)c(CN4CCN(C)CC4)c3)c(F)cc2C)cc2cnc(NC=O)cc21 [Example 100, N-(1-ethyl-3-(4-fluoro-5-(3-(4-fluoro-3-((4-methylpiperazin-1-yl)methyl)phenyl)ureido)-2-methylphenyl)-2-oxo-1,2-dihydro-1,6-naphthyridin-7-yl)formamide] | 100 to 1000 | 100 to 1000 | 100 to 1000 | 100 to 1000 | 10 to 100 | 10 to 100
4 | CCn1c(=O)c(-c2cc(NC(=O)Nc3csc4ccccc34)c(F)cc2C)cc2cnc(NC(=O)N(C)C)cc21 [Example 104, 3-(3-(5-(3-(benzo[b]thiophen-3-yl)ureido)-4-fluoro-2-methylphenyl)-1-ethyl-2-oxo-1,2-dihydro-1,6-naphthyridin-7-yl)-1,1-dimethylurea] | 100 to 1000 | 10 to 100 | 10 to 100 | 10 to 100 | 10 to 100 | 10 to 100
5 | CCn1c(=O)c(-c2cc(NC(=O)Nc3ccccc3)c(F)cc2Br)cc2cnc(NC(=O)N(C)C)cc21 [Example 105, 3-(3-(2-bromo-4-fluoro-5-(3-phenylureido)phenyl)-1-ethyl-2-oxo-1,2-dihydro-1,6-naphthyridin-7-yl)-1,1-dimethylurea] | 10 to 100 | 10 to 100 | 10 to 100 | 10 to 100 | 10 to 100 | < 10
6 | CCn1c(=O)c(-c2cc(NC(=O)Nc3cccc(F)c3)c(F)cc2C)cc2cnc(NC(=O)N(C)C)cc21 [Example 106, 3-(1-ethyl-3-(4-fluoro-5-(3-(3-fluorophenyl)ureido)-2-methylphenyl)-2-oxo-1,2-dihydro-1,6-naphthyridin-7-yl)-1,1-dimethylurea] | 10 to 100 | < 10 | 10 to 100 | 10 to 100 | 10 to 100 | < 10

Further lines, with some results ahead:

Row | IC50 (c-KIT V654A kinase) [nM] | IC50 (c-KIT D816H kinase) [nM] | IC50 (c-KIT D816V kinase) [nM] | IC50 (c-KIT T670I kinase) [nM] | IC50 (c-KIT kinase) [nM] | Structure (SMILES) | IC50 (GIST T1 cells) [nM]
7 | 10 to 100 | 10 to 100 | < 10 | 10 to 100 | 10 to 100 | CC(C)n1c(=O)c(-c2cc(NC(=O)Nc3cccc(F)c3)c(F)cc2Cl)cc2cnc(NC(=O)N(C)C)cc21 [Example 98, 3-(3-(2-chloro-4-fluoro-5-(3-(3-fluorophenyl)ureido)phenyl)-1-isopropyl-2-oxo-1,2-dihydro-1,6-naphthyridin-7-yl)-1,1-dimethylurea] | < 10
8 | 10 to 100 | 10 to 100 | < 10 | 10 to 100 | 10 to 100 | CC(C)n1c(=O)c(-c2cc(NC(=O)Nc3ccccc3)c(F)cc2Cl)cc2cnc(NC(=O)N(C)C)cc21 [Example 103, 3-(3-(2-chloro-4-fluoro-5-(3-phenylureido)phenyl)-1-isopropyl-2-oxo-1,2-dihydro-1,6-naphthyridin-7-yl)-1,1-dimethylurea] | 10 to 100
